Source: ChEMBL document CHEMBL3286339, “Synthesis and in vivo SAR study of indolin-2-one-based multi-targeted inhibitors as potential anticancer agents” (Eur J Med Chem, 2014)
Active and inactive are the calls of the source. The rule behind the calls is not given here.

Assays:
[1] = target: Platelet-derived growth factor receptor beta (Homo sapiens, UniProt P09619); assay: Binding affinity to PDGFR-beta (unknown origin)
[2] = target: Vascular endothelial growth factor receptor 3 (Homo sapiens, UniProt P35916); assay: Binding affinity to VEGFR3 (unknown origin)
[3] = target: T1, Tyrosine-protein kinase ABL1 (Homo sapiens, UniProt P00519); assay: Inhibition of ABL (unknown origin) at 1 uM relative to control
Focal adhesion kinase 1 = Focal adhesion kinase 1 (Homo sapiens, UniProt Q05397); assay: Inhibition of FAK (unknown origin) at 1 uM relative to control
Mus musculus [4] = assay: Toxicity in BALB/c nude mouse xenografted with human NCI-H460 cells assessed as severe weight loss at 40 mg/kg/day administered qd; type: organism-based; conditions: in vivo
NCI-H460 [5] = assay: Antiproliferative activity against human NCI-H460 cells after 72 hrs by MTT assay; type: functional, cell-based; conditions: NCI-H460, 72 h
[6] = target: T2, Fibroblast growth factor receptor 3 (Homo sapiens, UniProt P22607); assay: Binding affinity to FGFR3 (unknown origin)
[7] = target: Tyrosine-protein kinase receptor UFO (Homo sapiens) (UniProt P30530); conditions: 1 uM
Description: Inhibition of AXL (unknown origin) at 1 uM relative to control

Mus musculus [8] = assay: Toxicity in BALB/c nude mouse xenografted with human NCI-H460 cells assessed as hematuria at 40 mg/kg/day administered qd; type: organism-based; conditions: in vivo
[9] = target: Tyrosine-protein kinase ABL2 (Homo sapiens, UniProt P42684); assay: Inhibition of ARG (unknown origin) at 1 uM relative to control
[10] = target: Tyrosine-protein kinase Lck (Homo sapiens, UniProt P06239); conditions: 1 uM
Description: Inhibition of LCK (unknown origin) at 1 uM relative to control

[11] = target: Vascular endothelial growth factor receptor 2 (Homo sapiens, UniProt P35968); assay: Binding affinity to VEGFR2 (unknown origin)
[12] = target: Phosphorylase b kinase gamma catalytic chain, liver/testis isoform (Homo sapiens, UniProt P15735); assay: Binding affinity to PHKgamma2 (unknown origin)
[13] = target: Receptor-type tyrosine-protein kinase FLT3 (Homo sapiens) (UniProt P36888); assay: Inhibition of FLT3 (unknown origin) at 1 uM relative to control
[14] = target: T3, Mast/stem cell growth factor receptor Kit (Homo sapiens, UniProt P10721); assay: Binding affinity to c-KIT (unknown origin)
[15] = target: T4, Tyrosine-protein kinase Fyn (Homo sapiens, UniProt P06241); conditions: 1 uM
Description: Inhibition of FYN (unknown origin) at 1 uM relative to control

[16] = Antiproliferative activity against human NCI-H3122 cells after 72 hrs by MTT assay; type: functional, cell-based; conditions: NCI-H3122, 72 h
[17] = target: Receptor-type tyrosine-protein kinase FLT3 (Homo sapiens, UniProt P36888); assay: Binding affinity to FLT3 (unknown origin)
[18] = Antiproliferative activity against human HK2 cells after 72 hrs by MTT assay; type: cell-based; conditions: HK-2, 72 h
[19] = target: T5, Protein-tyrosine kinase 2-beta (Homo sapiens, UniProt Q14289); assay: Binding affinity to PYK2 (unknown origin)
[20] = target: T2, Fibroblast growth factor receptor 3; conditions: 1 uM
Description: Inhibition of FGFR3 (unknown origin) at 1 uM relative to control

[21] = target: T5, Protein-tyrosine kinase 2-beta; assay: Inhibition of PYK2 (unknown origin) at 1 uM relative to control
[22] = target: Vascular endothelial growth factor receptor 1 (Homo sapiens, UniProt P17948); assay: Inhibition of VEGFR1 (unknown origin) at 1 uM relative to control
[23] = target: T3, Mast/stem cell growth factor receptor Kit; conditions: 1 uM
Description: Inhibition of c-KIT (unknown origin) at 1 uM relative to control

[24] = target: Serine/threonine-protein kinase Chk1 (Homo sapiens, UniProt O14757); assay: Binding affinity to CHK1 (unknown origin)
[25] = Antiproliferative activity against human Bel7402 cells after 72 hrs by MTT assay; type: functional, cell-based; conditions: Bel-7402, 72 h
Mus musculus [26] = assay: Toxicity in BALB/c nude mouse xenografted with human HT-29 cells assessed as bloody stool at 80 mg/kg/day administered qd measured up to day 21; type: organism-based; conditions: in vivo
[27] = target: T6, Macrophage colony-stimulating factor 1 receptor (Homo sapiens, UniProt P07333); assay: Inhibition of FMS (unknown origin) at 1 uM relative to control
Mus musculus [28] = assay: Toxicity in BALB/c nude mouse xenografted with human NCI-H460 cells assessed as bloody stool at 40 mg/kg/day administered qd; type: organism-based; conditions: in vivo
Aorta = assay: Inhibition of micrangium generation in Sprague-Dawley rat aortic ring at 0.2 ug/ml after 6 days by inverted microscopic analysis; type: functional, tissue-based
[29] = target: T1, Tyrosine-protein kinase ABL1; assay: Binding affinity to ABL (unknown origin)
Mus musculus [30] = assay: Toxicity in BALB/c nude mouse xenografted with human NCI-H460 cells assessed as change in body weight at 40 mg/kg/day administered qd relative to control; type: organism-based; conditions: in vivo
[31] = target: Fibroblast growth factor receptor 1 (Homo sapiens, UniProt P11362); assay: Binding affinity to FGFR1 (unknown origin)
[32] = target: Phosphorylase b kinase gamma catalytic chain, liver/testis isoform (Homo sapiens) (UniProt P15735); assay: Inhibition of PHKgamma2 (unknown origin) at 1 uM relative to control
[33] = target: Tyrosine-protein kinase receptor UFO (Homo sapiens, UniProt P30530); assay: Binding affinity to AXL (unknown origin)
[34] = Antiproliferative activity against human MV411 cells after 48 hrs by MTT assay; type: functional, cell-based; conditions: MV4-11, 48 h
Mus musculus [35] = assay: Toxicity in BALB/c nude mouse xenografted with human HT-29 cells assessed as hematuria at 80 mg/kg/day administered qd measured up to day 21; type: organism-based; conditions: in vivo
[36] = target: T4, Tyrosine-protein kinase Fyn; assay: Binding affinity to FYN (unknown origin)
Target sequence in this assay (P06241 whole entry): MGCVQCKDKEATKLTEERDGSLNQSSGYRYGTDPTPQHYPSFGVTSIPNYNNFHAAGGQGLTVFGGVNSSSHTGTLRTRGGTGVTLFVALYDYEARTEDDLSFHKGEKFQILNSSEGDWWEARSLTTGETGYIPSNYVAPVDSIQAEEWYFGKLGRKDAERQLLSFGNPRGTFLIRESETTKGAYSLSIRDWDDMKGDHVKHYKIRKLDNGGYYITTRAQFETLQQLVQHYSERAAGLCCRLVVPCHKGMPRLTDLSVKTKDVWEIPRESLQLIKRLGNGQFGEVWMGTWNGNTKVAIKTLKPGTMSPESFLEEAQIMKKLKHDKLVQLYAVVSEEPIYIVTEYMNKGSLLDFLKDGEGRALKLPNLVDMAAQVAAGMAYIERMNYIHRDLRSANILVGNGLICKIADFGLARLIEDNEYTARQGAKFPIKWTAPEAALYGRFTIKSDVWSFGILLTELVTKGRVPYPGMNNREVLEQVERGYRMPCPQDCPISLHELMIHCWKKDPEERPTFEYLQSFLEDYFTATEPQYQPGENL

NCI-H526 = assay: Antiproliferative activity against human NCI-H526 cells after 72 hrs by MTT assay; type: functional, cell-based; conditions: NCI-H526, 72 h
[37] = target: T7, Proto-oncogene tyrosine-protein kinase receptor Ret (Homo sapiens, UniProt P07949); conditions: 1 uM
Description: Inhibition of RET (unknown origin) at 1 uM relative to control

[38] = Solubility of the compound in water; type: physicochemical; conditions: buffer
NCI-H460 [39] = assay: Antitumor activity against human NCI-H460 cells xenografted in BALB/c nude mouse assessed as tumor growth inhibition at 40 mg/kg/day administered qd measured up to day 21 relative to control; type: functional; conditions: NCI-H460, 504 h, read-out: TGI
[40] = target: T7, Proto-oncogene tyrosine-protein kinase receptor Ret; assay: Binding affinity to RET (unknown origin)
[41] = target: T6, Macrophage colony-stimulating factor 1 receptor; assay: Binding affinity to FMS (unknown origin)
[42] = target: ALK tyrosine kinase receptor (Homo sapiens, UniProt Q9UM73); assay: Binding affinity to ALK (unknown origin)
HT-29 = assay: Antitumor activity against human HT-29 cells xenografted in BALB/c nude mouse assessed as tumor growth inhibition at 80 mg/kg/day administered qd measured up to day 21 relative to control; type: functional; set-up: scale not given: the % may be the effect or the level left

T1 sequence (P00519 whole entry): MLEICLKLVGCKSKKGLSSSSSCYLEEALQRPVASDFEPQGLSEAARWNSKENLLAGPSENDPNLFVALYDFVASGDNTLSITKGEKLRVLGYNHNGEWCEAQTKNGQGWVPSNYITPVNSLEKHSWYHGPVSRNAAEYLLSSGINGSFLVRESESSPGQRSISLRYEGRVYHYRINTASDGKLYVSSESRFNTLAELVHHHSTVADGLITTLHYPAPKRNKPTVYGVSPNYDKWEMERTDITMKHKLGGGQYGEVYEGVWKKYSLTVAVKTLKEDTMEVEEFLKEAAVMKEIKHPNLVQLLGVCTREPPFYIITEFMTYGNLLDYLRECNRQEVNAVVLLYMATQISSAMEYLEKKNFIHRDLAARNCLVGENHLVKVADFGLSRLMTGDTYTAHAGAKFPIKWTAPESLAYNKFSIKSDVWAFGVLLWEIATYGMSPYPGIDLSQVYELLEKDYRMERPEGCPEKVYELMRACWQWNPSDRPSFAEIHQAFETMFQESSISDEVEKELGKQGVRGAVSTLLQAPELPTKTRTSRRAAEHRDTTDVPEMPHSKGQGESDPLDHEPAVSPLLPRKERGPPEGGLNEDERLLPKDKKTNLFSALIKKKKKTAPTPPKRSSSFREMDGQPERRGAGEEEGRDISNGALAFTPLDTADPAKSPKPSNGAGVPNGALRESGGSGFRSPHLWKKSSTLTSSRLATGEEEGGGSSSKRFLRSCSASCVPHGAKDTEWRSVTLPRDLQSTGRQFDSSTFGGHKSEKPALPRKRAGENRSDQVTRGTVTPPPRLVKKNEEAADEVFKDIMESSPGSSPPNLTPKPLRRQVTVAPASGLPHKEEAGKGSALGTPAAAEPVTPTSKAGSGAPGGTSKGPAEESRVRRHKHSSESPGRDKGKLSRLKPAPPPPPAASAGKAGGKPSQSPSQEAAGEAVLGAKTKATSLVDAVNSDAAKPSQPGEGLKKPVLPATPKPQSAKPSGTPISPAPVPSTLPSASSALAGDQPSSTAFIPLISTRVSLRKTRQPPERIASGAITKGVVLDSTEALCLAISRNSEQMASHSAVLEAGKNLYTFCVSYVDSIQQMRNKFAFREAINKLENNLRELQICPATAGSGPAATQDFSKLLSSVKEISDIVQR
T7 sequence (P07949 whole entry): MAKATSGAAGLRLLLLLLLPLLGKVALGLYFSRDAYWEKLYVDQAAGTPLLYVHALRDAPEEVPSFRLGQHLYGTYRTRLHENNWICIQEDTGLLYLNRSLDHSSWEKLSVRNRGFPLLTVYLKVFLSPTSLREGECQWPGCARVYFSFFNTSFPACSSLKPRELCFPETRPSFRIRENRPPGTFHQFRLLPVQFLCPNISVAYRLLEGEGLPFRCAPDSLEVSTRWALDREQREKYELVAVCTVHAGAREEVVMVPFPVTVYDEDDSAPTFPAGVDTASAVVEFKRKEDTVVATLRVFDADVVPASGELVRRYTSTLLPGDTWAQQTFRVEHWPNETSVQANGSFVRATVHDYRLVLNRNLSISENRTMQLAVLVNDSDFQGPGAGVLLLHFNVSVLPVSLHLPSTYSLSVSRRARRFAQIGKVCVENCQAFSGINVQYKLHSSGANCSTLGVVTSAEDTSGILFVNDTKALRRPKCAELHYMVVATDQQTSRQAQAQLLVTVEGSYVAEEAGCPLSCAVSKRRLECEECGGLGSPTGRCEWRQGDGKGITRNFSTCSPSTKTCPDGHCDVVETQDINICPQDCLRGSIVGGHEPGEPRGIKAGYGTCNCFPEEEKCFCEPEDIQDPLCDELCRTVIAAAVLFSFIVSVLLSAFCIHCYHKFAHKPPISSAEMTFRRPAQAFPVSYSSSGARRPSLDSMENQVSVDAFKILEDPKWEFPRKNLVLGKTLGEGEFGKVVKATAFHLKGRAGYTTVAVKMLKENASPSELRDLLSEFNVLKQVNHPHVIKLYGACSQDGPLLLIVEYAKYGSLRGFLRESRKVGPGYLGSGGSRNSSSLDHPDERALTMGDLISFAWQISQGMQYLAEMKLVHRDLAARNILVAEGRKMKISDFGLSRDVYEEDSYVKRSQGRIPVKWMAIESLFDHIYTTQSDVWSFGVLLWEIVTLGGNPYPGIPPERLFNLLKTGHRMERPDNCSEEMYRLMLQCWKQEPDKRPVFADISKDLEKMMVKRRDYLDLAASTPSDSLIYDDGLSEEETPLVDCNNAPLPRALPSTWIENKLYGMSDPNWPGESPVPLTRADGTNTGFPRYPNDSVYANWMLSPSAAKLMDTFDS
T6 sequence (P07333 whole entry): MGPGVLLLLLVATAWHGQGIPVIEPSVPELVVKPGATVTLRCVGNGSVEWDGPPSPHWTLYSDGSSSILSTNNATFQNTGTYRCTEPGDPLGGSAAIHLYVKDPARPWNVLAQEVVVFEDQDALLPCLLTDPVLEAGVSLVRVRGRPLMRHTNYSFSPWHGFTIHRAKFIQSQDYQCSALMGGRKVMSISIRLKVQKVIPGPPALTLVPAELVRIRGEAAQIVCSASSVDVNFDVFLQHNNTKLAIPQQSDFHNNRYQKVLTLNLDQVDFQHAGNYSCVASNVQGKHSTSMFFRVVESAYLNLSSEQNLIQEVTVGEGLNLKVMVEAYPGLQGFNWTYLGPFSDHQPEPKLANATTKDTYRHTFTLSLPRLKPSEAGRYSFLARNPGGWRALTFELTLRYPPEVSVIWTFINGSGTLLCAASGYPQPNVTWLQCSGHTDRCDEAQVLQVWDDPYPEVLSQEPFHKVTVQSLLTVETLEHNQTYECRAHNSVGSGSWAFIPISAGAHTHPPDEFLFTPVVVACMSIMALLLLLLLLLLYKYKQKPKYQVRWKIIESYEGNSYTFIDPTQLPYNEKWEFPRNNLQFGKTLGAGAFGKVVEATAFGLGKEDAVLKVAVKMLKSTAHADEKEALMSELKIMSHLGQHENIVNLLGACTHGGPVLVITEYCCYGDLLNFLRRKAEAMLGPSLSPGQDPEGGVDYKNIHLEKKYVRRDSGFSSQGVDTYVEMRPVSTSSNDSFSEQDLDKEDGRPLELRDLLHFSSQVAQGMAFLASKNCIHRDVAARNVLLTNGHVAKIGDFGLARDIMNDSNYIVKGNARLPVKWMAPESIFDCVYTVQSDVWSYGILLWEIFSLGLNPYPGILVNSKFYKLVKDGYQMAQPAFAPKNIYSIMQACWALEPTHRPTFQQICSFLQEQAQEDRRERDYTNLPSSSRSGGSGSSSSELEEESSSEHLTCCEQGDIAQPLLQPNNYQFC
T3 sequence (P10721 whole entry): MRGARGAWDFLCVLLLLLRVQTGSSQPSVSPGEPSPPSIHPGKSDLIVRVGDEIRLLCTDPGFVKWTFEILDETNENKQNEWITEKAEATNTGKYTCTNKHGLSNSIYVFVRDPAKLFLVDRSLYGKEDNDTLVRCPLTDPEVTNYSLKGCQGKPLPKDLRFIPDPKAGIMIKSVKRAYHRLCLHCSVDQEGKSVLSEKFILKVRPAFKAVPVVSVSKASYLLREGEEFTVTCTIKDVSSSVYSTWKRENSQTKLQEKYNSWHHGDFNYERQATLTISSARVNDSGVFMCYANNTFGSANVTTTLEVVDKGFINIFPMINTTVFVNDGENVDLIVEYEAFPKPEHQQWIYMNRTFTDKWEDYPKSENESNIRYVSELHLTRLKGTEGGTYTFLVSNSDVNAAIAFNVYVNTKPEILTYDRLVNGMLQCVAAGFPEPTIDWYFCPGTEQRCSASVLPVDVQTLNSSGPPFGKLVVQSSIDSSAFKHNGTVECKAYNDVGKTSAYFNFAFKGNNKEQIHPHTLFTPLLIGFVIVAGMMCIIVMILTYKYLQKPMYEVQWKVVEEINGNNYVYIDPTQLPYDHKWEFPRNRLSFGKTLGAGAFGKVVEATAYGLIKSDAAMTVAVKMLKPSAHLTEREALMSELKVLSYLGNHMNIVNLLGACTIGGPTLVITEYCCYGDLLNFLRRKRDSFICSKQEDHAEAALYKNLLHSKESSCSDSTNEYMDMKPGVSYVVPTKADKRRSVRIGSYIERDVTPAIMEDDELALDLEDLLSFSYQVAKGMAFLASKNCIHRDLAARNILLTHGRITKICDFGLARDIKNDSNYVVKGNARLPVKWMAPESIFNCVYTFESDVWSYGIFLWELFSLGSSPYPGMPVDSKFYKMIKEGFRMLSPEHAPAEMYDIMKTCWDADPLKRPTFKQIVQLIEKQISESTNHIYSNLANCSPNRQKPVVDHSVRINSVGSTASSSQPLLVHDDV

Cc1[nH]c(/C=C2\C(=O)Nc3ccc(F)cc32)c(C)c1NC(=O)CCN1CCN(C)CC1
Ki [1]: 19 nM | Ki [2]: < 0.3 nM | inhibition [3]: 93% | inhibition (Focal adhesion kinase 1): 66% | Activity (Mus musculus [4]): Non-toxic | IC50 (NCI-H460 [5]): 6110 nM | Ki [6]: 89 nM | inhibition [7]: 95% | Activity (Mus musculus [8]): Non-toxic | inhibition [9]: 76% | inhibition [10]: 44% | Ki [11]: 3.8 nM | Ki [12]: 840 nM | inhibition [13]: 100% | Ki [14]: 200 nM | inhibition [15]: 44% | IC50 [16]: 17100 nM | Ki [17]: < 0.3 nM | IC50 [18]: 6850 nM | Ki [19]: 340 nM | inhibition [20]: 91% | inhibition [21]: 72% | inhibition [22]: 52% | inhibition [23]: 87% | Ki [24]: 110 nM | IC50 [25]: 14700 nM | Activity (Mus musculus [26]): Non-toxic | inhibition [27]: 84% | Activity (Mus musculus [28]): Non-toxic | inhibition (Aorta): Active | Ki [29]: 120 nM | Activity (Mus musculus [30]): 1.4% | Ki [31]: 350 nM | inhibition [32]: 51% | Ki [33]: 63 nM | IC50 [34]: 8 nM | Activity (Mus musculus [35]): Non-toxic | Ki [36]: 1800 nM | IC50 (NCI-H526): 20600 nM | inhibition [37]: 99% | solubility [38]: soluble | inhibition in vivo at 40 mg/kg/day (NCI-H460 [39]): 60.6% | Ki [40]: 18 nM | Ki [41]: 230 nM | Ki [42]: 95 nM | Activity (HT-29): 84.7%
